# Molecular target: T1, wild-type EZH2 (PRC2 enzyme) (Homo sapiens, UniProt Q15910)
# T1 construct: made in house; host or cells: Spodoptera frugiperda (sf9) cells, baculovirus
# Test: PRC2 enzyme assay on peptide substrates (wild-type EZH2)
# Assay type: biochemical
# Settings: wild-type PRC2 enzyme 4 nM, H3K27me0 peptide substrate, 3H-SAM Flashplate; read-out: WT EZH2 IC50
# Description: General Materials. S-adenosylmethionine (SAM), S-adenosylhomocyteine (SAH), bicine, KCl, Tween20, dimethylsulfoxide (DMSO) and bovine skin gelatin (BSG) were purchased from Sigma-Aldrich at the highest level of purity possible. Dithiothreitol (DTT) was purchased from EMD Millipore. ^3H-SAM was purchased from American Radiolabeled Chemicals with a specific activity of 80 Ci/mmol. 384-well streptavidin Flashplates were purchased from PerkinElmer.
# Substrates. Peptides representative of human histone H3 residues 21- 44 containing either an unmodified lysine 27 (H3K27me0) or dimethylated lysine 27 (H3K27me2) are synthesized with a C-terminal G(K-biotin) linker-affinity tag motif and a C-terminal amide cap by 21st Century Biochemicals. The peptides are high-performance liquid chromatography (HPLC) purified to greater than 95% purity and confirmed by liquid chromatography mass spectrometry (LC-MS). The sequences are listed below.
# Recombinant PRC2 Enzymes. Human PRC2 enzymes were purified as 4-component enzyme complexes co-expressed in Spodoptera frugiperda (sf9) cells using a baculovirus expression system. The subunits expressed were wild-type EZH2 (NM_004456) or EZH2 Y641F, N, H, S or C mutants generated from the wild-type EZH2 construct, EED (NM_003797), Suz12 (NM_015355) and RbAp48 (NM_005610). The EED subunit contained an N-terminal FLAG tag that was used to purify the entire 4-component complex from sf9 cell lysates. The purity of the complexes met or exceeded 95% as determined by SDS-PAGE and Agilent Bioanalyzer analysis. Concentrations of enzyme stock concentrations (generally 0.3-1.0 mg/mL) was determined using a Bradford assay against a bovine serum albumin (BSA) standard.
# General Procedure for PRC2 Enzyme Assays on Peptide Substrates. The assays were all performed in a buffer consisting of 20 mM bicine (pH=7.6), 0.5 mM DTT, 0.005% BSG and 0.002% Tween20, prepared on the day of use. Compounds in 100% DMSO (1 μL) were spotted into polypropylene 384-well V-bottom plates (Greiner) using a Platemate 2×3 outfitted with a 384-channel pipet head (Thermo). DMSO (1 μL) was added to columns 11, 12, 23, 24, rows A -H for the maximum signal control, and SAH, a known product and inhibitor of PRC2 (1 μL) was added to columns 11,12, 23, 24, rows I -P for the minimum signal control. A cocktail (40 μL) containing the wild-type PRC2 enzyme and H3K27me0 peptide or any of the Y641 mutant enzymes and H3K27me2 peptide was added by Multidrop Combi (Thermo). The compounds were allowed to incubate with PRC2 for 30 min at 25° C., then a cocktail (10 μL) containing a mixture of non-radioactive and ^3H-SAM was added to initiate the reaction (final volume=51 μL). In all cases, the final concentrations were as follows: wild-type or mutant PRC2 enzyme was 4 nM, SAH in the minimum signal control wells was 1 mM and the DMSO concentration was 1%. The assays were stopped by the addition of non-radioactive SAM (10 μL) to a final concentration of 600 μM, which dilutes the ^3H-SAM to a level where its incorporation into the peptide substrate is no longer detectable. 50 μL of the reaction in the 384-well polypropylene plate was then transferred to a 384-well Flashplate and the biotinylated peptides were allowed to bind to the streptavidin surface for at least 1 h before being washed three times with 0.1% Tween20 in a Biotek ELx405 plate washer. The plates were then read in a PerkinElmer TopCount platereader to measure the quantity of ^3H-labeled peptide bound to the Flashplate surface, measured as disintegrations per minute (dpm) or alternatively, referred to as counts per minute (cpm).
# Where dpm=disintegrations per minute, cmpd=signal in assay well, and min and max are the respective minimum and maximum signal controls.
# Where top and bottom are the normally allowed to float, but may be fixed at 100 or 0 respectively in a 3-parameter fit. The Hill Coefficient normally allowed to float but may also be fixed at 1 in a 3-parameter fit. […]
# T1 sequence (Q15910 1-751 isoform Q15910-2): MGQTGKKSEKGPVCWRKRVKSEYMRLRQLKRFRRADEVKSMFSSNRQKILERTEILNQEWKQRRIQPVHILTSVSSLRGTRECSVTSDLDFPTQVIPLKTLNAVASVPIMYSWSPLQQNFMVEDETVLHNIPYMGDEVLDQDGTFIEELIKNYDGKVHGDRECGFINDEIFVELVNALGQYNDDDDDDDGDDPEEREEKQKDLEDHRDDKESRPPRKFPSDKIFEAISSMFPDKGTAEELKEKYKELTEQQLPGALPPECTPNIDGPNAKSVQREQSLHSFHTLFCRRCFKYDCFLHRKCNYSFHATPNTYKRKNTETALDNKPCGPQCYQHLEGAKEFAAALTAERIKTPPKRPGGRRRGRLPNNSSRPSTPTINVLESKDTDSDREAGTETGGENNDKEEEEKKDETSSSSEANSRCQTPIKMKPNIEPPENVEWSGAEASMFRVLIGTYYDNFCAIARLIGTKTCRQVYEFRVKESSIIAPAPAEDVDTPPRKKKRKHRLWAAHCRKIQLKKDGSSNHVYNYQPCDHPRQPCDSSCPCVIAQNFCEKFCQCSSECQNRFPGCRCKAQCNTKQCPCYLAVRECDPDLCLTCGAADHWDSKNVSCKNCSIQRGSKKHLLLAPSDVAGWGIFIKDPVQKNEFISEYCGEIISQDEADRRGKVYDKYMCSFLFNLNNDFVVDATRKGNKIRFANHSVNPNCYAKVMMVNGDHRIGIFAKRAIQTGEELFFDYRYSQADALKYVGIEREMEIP
# T1 sequence (O75530 whole entry partner): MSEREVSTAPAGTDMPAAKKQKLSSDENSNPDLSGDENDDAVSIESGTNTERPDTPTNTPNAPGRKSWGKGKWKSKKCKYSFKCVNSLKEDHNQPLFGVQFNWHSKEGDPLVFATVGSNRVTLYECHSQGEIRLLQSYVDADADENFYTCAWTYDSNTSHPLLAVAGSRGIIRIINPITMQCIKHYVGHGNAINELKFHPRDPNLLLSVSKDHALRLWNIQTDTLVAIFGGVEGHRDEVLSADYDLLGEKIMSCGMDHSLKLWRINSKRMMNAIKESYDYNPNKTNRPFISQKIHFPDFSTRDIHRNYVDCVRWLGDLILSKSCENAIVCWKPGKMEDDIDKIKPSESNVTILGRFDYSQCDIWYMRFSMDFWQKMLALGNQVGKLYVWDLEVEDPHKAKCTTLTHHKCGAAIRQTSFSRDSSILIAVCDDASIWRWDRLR
# T1 sequence (Q15022 whole entry partner): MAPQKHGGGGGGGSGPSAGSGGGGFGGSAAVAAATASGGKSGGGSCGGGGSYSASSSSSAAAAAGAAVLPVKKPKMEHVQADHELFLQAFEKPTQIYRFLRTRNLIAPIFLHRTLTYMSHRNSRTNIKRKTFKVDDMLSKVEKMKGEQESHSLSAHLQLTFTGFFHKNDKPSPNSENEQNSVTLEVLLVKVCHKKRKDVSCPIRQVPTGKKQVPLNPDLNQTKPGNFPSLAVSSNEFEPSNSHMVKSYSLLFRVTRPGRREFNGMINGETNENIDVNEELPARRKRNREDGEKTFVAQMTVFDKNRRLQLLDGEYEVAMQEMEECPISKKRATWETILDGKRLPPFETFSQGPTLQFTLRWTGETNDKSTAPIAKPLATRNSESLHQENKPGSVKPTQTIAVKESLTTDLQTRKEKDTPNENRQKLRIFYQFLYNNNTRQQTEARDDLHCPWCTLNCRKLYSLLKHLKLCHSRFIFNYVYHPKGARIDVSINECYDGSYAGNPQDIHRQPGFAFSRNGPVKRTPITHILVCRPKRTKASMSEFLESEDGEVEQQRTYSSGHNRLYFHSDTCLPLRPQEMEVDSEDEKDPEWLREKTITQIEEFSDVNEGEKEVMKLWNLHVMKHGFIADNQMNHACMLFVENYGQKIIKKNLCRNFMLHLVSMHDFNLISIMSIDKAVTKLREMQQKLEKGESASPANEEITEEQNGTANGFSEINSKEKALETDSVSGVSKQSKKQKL
# T1 sequence (Q09028 whole entry partner): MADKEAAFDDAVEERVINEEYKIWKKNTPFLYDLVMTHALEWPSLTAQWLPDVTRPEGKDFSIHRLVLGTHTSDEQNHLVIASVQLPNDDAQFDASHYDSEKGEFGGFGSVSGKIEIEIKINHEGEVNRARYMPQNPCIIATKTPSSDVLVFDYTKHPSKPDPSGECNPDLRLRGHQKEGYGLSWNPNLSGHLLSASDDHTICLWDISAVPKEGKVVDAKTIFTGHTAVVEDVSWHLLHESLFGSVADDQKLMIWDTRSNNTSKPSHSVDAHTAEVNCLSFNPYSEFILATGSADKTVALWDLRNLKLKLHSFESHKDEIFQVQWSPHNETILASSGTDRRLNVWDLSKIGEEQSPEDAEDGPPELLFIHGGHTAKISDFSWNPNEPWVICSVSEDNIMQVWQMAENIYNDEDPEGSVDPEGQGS
row,Structure (SMILES),IC50 [µM]
1,"CCN(c1cc(Cl)cc(C(=O)NCc2c(C)cc(C)n3ccnc23)c1C)[C@H]1CC[C@H](N(C)C)CC1 [Compound 1, 5-chloro-3-(((trans)-4-(dimethylamino)cyclohexyl)(ethyl)amino)-N-((5,7-dimethylimidazo[1,2-a]pyridin-8-yl)methyl)-2-methylbenzamide]",0.433
2,"CCN(c1cc(Cl)cc(C(=O)NCc2c(C)ccn3ccnc23)c1C)[C@H]1CC[C@H](N(C)C)CC1 [Compound 2, 5-chloro-3-(((trans)-4-(dimethylamino)cyclohexyl)(ethyl)amino)-2-methyl-N-((7-methylimidazo[1,2-a]pyridin-8-yl)methyl)benzamide]",1.38
3,"CCN(c1cc(Cl)cc(C(=O)NCc2cccn3ccnc23)c1C)[C@H]1CC[C@H](N(C)C)CC1 [Compound 3, 5-chloro-3-(((trans)-4-(dimethylamino)cyclohexyl)(ethyl)amino)-N-(imidazo[1,2-a]pyridin-8-ylmethyl)-2-methylbenzamide]",2.18
4,"CCN(c1cc(Cl)cc(C(=O)NCc2ccc(C)c3cn(C)nc23)c1C)C1CCC(N(C)C)CC1 (centres unmarked) [Compound 4, 5-chloro-N-((2,4-dimethyl-2H-indazol-7-yl)methyl)-3-(((1s,4s)-4-(dimethylamino)cyclohexyl)(ethyl)amino)-2-methylbenzamide]",5.13
5,"CCN(c1cc(Cl)cc(C(=O)NCc2c(C)ccc3cn(C)nc23)c1C)[C@H]1CC[C@H](N(C)C)CC1 [Compound 5, 5-chloro-N-((2,6-dimethyl-2H-indazol-7-yl)methyl)-3-(((trans)-4-(dimethylamino)cyclohexyl)(ethyl)amino)-2-methylbenzamide]",> 10
6,"CCN(c1cc(Cl)cc(C(=O)NCc2cccc3cn(C)nc23)c1C)[C@H]1CC[C@H](N(C)C)CC1 [Compound 6, 5-chloro-3-(((trans)-4-(dimethylamino)cyclohexyl)(ethyl)amino)-2-methyl-N-((2-methyl-2H-indazol-7-yl)methyl)benzamide]",> 10
7,"CCN(c1cc(Cl)cc(C(=O)NCc2cccc3ccnn23)c1C)[C@H]1CC[C@H](N(C)C)CC1 [Compound 7, 5-chloro-3-(((trans)-4-(dimethylamino)cyclohexyl)(ethyl)amino)-2-methyl-N-(pyrazolo[1,5-a]pyridin-7-ylmethyl)benzamide]",> 10
8,"CCN(c1cc(Cl)cc(C(=O)NCCc2nccn2C)c1C)[C@H]1CC[C@H](N(C)C)CC1 [Compound 8, 5-chloro-3-(((trans)-4-(dimethylamino)cyclohexyl)(ethyl)amino)-2-methyl-N-(2-(1-methyl-1H-imidazol-2-yl)ethyl)benzamide]",12.2
9,"CCN(c1cc(Cl)cc(C(=O)NCCc2nccn2Cc2ccccc2)c1C)[C@H]1CC[C@H](N(C)C)CC1 [Compound 9, N-(2-(1-benzyl-1H-imidazol-2-yl)ethyl)-5-chloro-3-(((trans)-4-(dimethylamino)cyclohexyl)(ethyl)amino)-2-methylbenzamide]",1.65
10,"CCN(c1cc(Cl)cc(C(=O)NCCc2ncc[nH]2)c1C)[C@H]1CC[C@H](N(C)C)CC1 [Compound 10, N-(2-(1H-imidazol-2-yl)ethyl)-5-chloro-3-(((trans)-4-(dimethylamino)cyclohexyl)(ethyl)amino)-2-methylbenzamide]",2.03
11,"CCN(c1cc(Cl)cc(C(=O)NCCc2nc3ccccc3n2C)c1C)[C@H]1CC[C@H](N(C)C)CC1 [Compound 11, 5-chloro-3-(((trans)-4-(dimethylamino)cyclohexyl)(ethyl)amino)-2-methyl-N-(2-(1-methyl-1H-benzo[d]imidazol-2-yl)ethyl)benzamide]",> 50
12,"CCN(c1cc(Cl)cc(C(=O)NCCc2nccs2)c1C)[C@H]1CC[C@H](N(C)C)CC1 [Compound 12, 5-chloro-3-(((trans)-4-(dimethylamino)cyclohexyl)(ethyl)amino)-2-methyl-N-(2-(thiazol-2-yl)ethyl)benzamide]",> 50
13,"CCN(c1cc(Cl)cc(C(=O)NCCc2nc3ccccc3s2)c1C)[C@H]1CC[C@H](N(C)C)CC1 [Compound 13, N-(2-(benzo[d]thiazol-2-yl)ethyl)-5-chloro-3-(((trans)-4-(dimethylamino)cyclohexyl)(ethyl)amino)-2-methylbenzamide]",37.7
14,"CCN(c1cc(Cl)cc(C(=O)NCCc2nc3ccccc3o2)c1C)[C@H]1CC[C@H](N(C)C)CC1 [Compound 14, N-(2-(benzo[d]oxazol-2-yl)ethyl)-5-chloro-3-(((trans)-4-(dimethylamino)cyclohexyl)(ethyl)amino)-2-methylbenzamide]",6.55
15,"CCN(c1cc(Cl)cc(C(=O)NCc2ncc[nH]2)c1C)[C@H]1CC[C@H](N(C)C)CC1 [Compound 15, N-((1H-imidazol-2-yl)methyl)-5-chloro-3-(((trans)-4-(dimethylamino)cyclohexyl)(ethyl)amino)-2-methylbenzamide]",> 10
16,"CCN(c1cc(Cl)cc(C(=O)NCc2nccn2C)c1C)[C@H]1CC[C@H](N(C)C)CC1 [Compound 16, 5-chloro-3-(((tans)-4-(dimethylamino)cyclohexyl)(ethyl)amino)-2-methyl-N-((1-methyl-1H-imidazol-2-yl)methyl)benzamide]",3.11
17,"CCN(c1cc(Cl)cc(C(=O)NCc2nccn2Cc2ccccc2)c1C)[C@H]1CC[C@H](N(C)C)CC1 [Compound 17, N-((1-benzyl-1H-imidazol-2-yl)methyl)-5-chloro-3-(((1r,4r)-4-(dimethylamino)cyclohexyl)(ethyl)amino)-2-methylbenzamide]",2.99
18,"CCN(c1cc(Cl)cc(C(=O)NCc2nccn2C(C)C)c1C)[C@H]1CC[C@H](N(C)C)CC1 [Compound 18, 5-chloro-3-(((trans)-4-(dimethylamino)cyclohexyl)(ethyl)amino)-N-((1-isopropyl-1H-imidazol-2-yl)methyl)-2-methylbenzamide]",> 10
19,"CCN(c1cc(Cl)cc(C(=O)NCc2nc3ccccc3[nH]2)c1C)[C@H]1CC[C@H](N(C)C)CC1 [Compound 19, N-((1H-benzo[d]imidazol-2-yl)methyl)-5-chloro-3-(((1r,4r)-4-(dimethylamino)cyclohexyl)(ethyl)amino)-2-methylbenzamide]",> 10
20,"CCN(c1cc(Cl)cc(C(=O)NCc2ncc(C)[nH]2)c1C)[C@H]1CC[C@H](N(C)C)CC1 [Compound 20, 5-chloro-3-(((trans)-4-(dimethylamino)cyclohexyl)(ethyl)amino)-2-methyl-N-((5-methyl-1H-imidazol-2-yl)methyl)benzamide]",> 10
21,"CCN(c1cc(Cl)cc(C(=O)NCCc2nc3ccccc3[nH]2)c1C)[C@H]1CC[C@H](N(C)C)CC1 [Compound 21, N-(2-(1H-benzo[d]imidazol-2-yl)ethyl)-5-chloro-3-(((1r,4r)-4-(dimethylamino)cyclohexyl)(ethyl)amino)-2-methylbenzamide]",37.1
22,"CCN(c1cc(Cl)cc(C(=O)NCc2cncn2C)c1C)C1CCOCC1 [Compound 22, 5-chloro-3-(ethyl(tetrahydro-2H-pyran-4-yl)amino)-2-methyl-N-((1-methyl-1H-imidazol-5-yl)methyl)benzamide]",> 50
23,"CCN(c1cc(Cl)cc(C(=O)NCc2nccn2C)c1C)C1CCOCC1 [Compound 23, 5-chloro-3-(ethyl(tetrahydro-2H-pyran-4-yl)amino)-2-methyl-N-((1-methyl-1H-imidazol-2-yl)methyl)benzamide]",23.7

# — patent US9243001B2, “Substituted benzene compounds” (Epizyme, Inc., priority 2013, dated 2016)
